According to article PMC5715595 (British Journal of Pharmacology, 2017):
Where two headings read alike, the source gives them in different places.

Legend:
NaV1.5 = NaV1.5 (Homo sapiens, UniProt Q14524); assay: cell-based
Procedure: (§1) and CiPA Initiative Studies
(§2) =============================================================
(§3) In vitro studies on other ion channels […]
(§4) through NaV1.5, KV4.3, KV7.1/mink, Kir2.1, KV1.5, CaV1.2 and CaV3.2 channels.
(§5) 35-mm dish culture in the conditions mentioned in standard cell culture conditions. Experiments were performed with a cell density enabling isolated cells for patch clamping. Cells were continuously superfused with extracellular medium (1-2 mL∙minute-1) at room temperature.
(§6) D-glucose 10, HEPES 10 and the final pH adjusted to 7.4±0.02 with NaOH for recording NaV1.5, KV4.3, KV7.1/mink, Kir2.1, KV1.5 and CaV3.2 currents. It was (in mM): NaCl 110, KCl 4, BaCl2 20, MgCl2 1, D-glucose 20, HEPES 10 and the final pH adjusted to 7.4 ± 0.02 with NaOH for recording the CaV1.2 current. Compositions of the intracellular solution to fill the pipette are […]
(§7) Composition of intracellular solutions used to fill pipette to record currents through NaV1.5, KV4.3, KV7.1/mink, Kir2.1, KV1.5, CaV1.2 and CaV3.2 channels
(§8) Solution to fill the pipette (mM)
(§9) Creatine-phospho kinase 50 U∙mL-1
(§10) After formation of a Gigaohm seal between the patch electrodes and individual cells (pipette resistance range: 2.0 MΩ - 7.0 MΩ; seal resistance range: > 1 GΩ) the cell membrane across the pipette tip was ruptured to assure electrical access to the cell interior (whole-cell patch-configuration). In case the quality of the seal was poor, the process of seal formation was repeated with a different cell and a new pipette. As soon as a stable seal was established outward tail currents were measured upon pulses described in the Table S2. If current density was judged to be too low for measurement, another cell was recorded. […]
(§11) voltage stimulation protocol indicated in the next table continuously run until the steady-state level of block was reached.
(§12) Stimulation conditions used to record currents through NaV1.5, KV4.3, KV7.1/mink, Kir2.1, KV1.5, CaV1.2 and CaV3.2 channels
(§13) Ion channel Holding potential Pulse / duration Frequency Reference compound […]
(§14) (resting / fast / slow sweeps at one (10 mM) inactivated concentration)

CaV1.2 = CaV1.2 (Homo sapiens, UniProt Q13936); assay: cell-based
Procedure: as §1, §2, §3, §4, §5, §6, §7, §8, §9, §10, §11, §12, §13, §14

α2A‐adrenoceptor = α2A‐adrenoceptor (Homo sapiens, UniProt P08913); assay: Affinity at α2A-adrenoceptor; assay type: binding
Chain of α2A‐adrenoceptor (P08913 whole entry): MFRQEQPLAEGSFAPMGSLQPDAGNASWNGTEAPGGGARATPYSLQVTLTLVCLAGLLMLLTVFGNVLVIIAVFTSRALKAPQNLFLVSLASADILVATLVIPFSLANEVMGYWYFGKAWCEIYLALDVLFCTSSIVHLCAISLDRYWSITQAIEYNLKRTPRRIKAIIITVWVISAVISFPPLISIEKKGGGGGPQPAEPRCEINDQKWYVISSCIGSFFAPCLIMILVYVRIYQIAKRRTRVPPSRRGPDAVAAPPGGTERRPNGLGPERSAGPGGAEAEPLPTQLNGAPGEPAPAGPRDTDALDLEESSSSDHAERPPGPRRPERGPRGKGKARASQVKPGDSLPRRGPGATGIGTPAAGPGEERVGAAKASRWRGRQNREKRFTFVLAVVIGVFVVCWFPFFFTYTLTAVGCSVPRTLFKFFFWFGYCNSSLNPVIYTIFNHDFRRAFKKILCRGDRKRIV

hERG channel trafficking = system: hERG channel trafficking
Text: Whole‐cell patch clamp conditions were similar to the previous one with the following slight changes (biphasic pulses 2 s at +20 mV and then for 3.2 s at −50 mV applied at a 0.1 Hz).

rabbit Purkinje fibres = assay: Dofetilide-induced early after-depolarizations and triggered activity in rabbit Purkinje fibres; assay type: cell-based; conditions: for APD90: 0.25 Hz
Procedure: Following a lethal dose of pentobarbital, the hearts of male New Zealand rabbits were immediately excised and immersed in a modified Tyrode solution maintained at room temperature and previously saturated with O2/CO2 (95%/5%). A piece of ventricle containing free running Purkinje fibres was fixed to the silastic bottom of an organ bath perfused with the same solution maintained at 37°C for 30 min. The preparation was then superfused with the modified Tyrode solution and stimulated for 30 min at 2 Hz and then at 1 Hz (2 ms stimulus at twice threshold). […] After a stabilization period of at least 1 h, action potentials typical for Purkinje fibres were recorded. Action potential reproducibility and stability were confirmed during a further 20 min stabilization period. […] Each was applied for 20 min to enable steady state to be reached. In addition, the emergence of early after‐depolarizations (EADs), favoured by calcium loading during the late phase 2 of the prolonged action potential, is recognized as a better marker of pro‐arrhythmic potential than APD prolongation alone.

in vitro = conditions: human
anaesthetized rabbits = system: anaesthetized rabbits
Procedure: All the other experimental groups were 100% female. Animals were anaesthetized with sodium pentobarbital (45–60 mg·kg^−1 i.v.), maintained on a heated pad and mechanically ventilated with room air. […] A fluid‐filled catheter was inserted into the carotid artery to measure systemic arterial blood pressure and for blood sampling. A venous catheter was implanted into the jugular vein for infusion of drugs. Standard surface ECG leads I, II and III were monitored continuously to measure ECG intervals and the occurrence of ventricular tachyarrhythmia. Measurements of arterial blood pressures were calculated over 30 s duration at baseline and every 5 min. […] Then, for all determinations, the means of 10–30 consecutive sinus beats were automatically calculated at each time point (i.e. at the end of the stabilization period and then every 5 until 60 min after starting drug infusion) or until the occurrence of premature ventricular beats. Parameters recorded were systolic, diastolic and mean arterial blood pressure (mmHg), heart rate (beats·min^‐1 calculated from RR interval) as well as PR, QRS and QT/QTU intervals (ms), amplitudes of T‐wave and U‐wave (mV) and rhythm disturbances retrieved from ECG signals. […] Arrhythmia were scored according to the following scale: 0 being no arrhythmia, 1 being premature beats, 2 being auriculo‐ventricular blocks, 3 being ventricular tachycardia and 4 being TdP; and scores correspond to the average of maximal life‐threatening arrhythmias recorded during the experiment. […] Haemodynamic and ECG recordings were monitored continuously over 60 min following the start of infusion.

[1] = 10 μM pitolisant, dofetilide 0.1 μM
[2] = cumulative i.v. infusion 1, 3.3 and 10 mg·kg^−1 in successive 20 min steps

Chain of NaV1.5 (Q14524 whole entry): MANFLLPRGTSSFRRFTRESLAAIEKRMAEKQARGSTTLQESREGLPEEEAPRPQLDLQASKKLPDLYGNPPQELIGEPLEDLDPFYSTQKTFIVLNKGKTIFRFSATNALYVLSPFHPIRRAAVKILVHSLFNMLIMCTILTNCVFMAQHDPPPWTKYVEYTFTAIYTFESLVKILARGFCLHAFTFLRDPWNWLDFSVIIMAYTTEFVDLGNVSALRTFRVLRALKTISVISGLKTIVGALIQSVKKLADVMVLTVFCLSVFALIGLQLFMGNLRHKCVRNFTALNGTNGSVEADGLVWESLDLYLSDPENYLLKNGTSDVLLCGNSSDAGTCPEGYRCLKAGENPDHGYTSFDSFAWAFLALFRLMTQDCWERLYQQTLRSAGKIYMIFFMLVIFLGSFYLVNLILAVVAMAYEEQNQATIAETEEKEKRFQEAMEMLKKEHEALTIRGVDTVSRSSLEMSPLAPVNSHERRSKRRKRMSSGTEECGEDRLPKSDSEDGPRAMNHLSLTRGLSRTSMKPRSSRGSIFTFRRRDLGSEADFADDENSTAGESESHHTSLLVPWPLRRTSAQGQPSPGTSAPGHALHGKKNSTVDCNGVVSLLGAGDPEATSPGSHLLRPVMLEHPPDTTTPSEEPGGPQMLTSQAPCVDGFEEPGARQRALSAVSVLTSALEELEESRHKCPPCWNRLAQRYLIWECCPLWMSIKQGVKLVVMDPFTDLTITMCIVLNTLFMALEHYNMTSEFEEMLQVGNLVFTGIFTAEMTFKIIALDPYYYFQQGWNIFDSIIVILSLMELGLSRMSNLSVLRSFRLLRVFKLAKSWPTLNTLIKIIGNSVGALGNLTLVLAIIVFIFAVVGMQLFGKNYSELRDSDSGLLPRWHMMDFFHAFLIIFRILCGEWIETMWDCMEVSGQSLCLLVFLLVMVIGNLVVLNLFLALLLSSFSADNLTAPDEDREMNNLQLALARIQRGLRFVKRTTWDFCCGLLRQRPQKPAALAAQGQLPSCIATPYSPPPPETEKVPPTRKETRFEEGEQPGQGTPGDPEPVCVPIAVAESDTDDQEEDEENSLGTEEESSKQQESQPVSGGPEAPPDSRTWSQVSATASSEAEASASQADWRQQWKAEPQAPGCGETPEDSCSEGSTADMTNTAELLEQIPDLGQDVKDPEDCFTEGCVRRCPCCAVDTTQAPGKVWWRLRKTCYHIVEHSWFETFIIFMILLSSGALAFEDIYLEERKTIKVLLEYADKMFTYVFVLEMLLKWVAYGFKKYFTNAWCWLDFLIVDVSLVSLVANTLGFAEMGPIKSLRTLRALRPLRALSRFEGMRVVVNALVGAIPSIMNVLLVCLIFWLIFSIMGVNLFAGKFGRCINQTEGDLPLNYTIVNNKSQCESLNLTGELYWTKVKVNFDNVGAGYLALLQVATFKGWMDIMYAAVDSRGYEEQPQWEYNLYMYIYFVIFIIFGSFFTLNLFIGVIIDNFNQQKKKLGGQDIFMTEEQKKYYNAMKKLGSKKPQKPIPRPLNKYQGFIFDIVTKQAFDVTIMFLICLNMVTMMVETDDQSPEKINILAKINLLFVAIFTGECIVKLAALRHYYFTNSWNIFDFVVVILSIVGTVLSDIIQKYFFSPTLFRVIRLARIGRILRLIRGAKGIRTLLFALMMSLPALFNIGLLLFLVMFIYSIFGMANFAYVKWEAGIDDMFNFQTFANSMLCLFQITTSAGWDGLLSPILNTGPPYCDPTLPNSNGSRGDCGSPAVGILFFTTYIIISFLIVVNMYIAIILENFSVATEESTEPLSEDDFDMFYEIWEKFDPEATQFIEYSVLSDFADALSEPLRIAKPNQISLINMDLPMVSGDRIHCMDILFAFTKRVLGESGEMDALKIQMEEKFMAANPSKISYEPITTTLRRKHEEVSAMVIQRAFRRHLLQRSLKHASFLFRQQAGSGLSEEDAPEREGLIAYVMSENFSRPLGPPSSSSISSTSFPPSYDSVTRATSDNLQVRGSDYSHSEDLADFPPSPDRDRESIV

Cl.Clc1ccc(CCCOCCCN2CCCCC2)cc1 [pitolisant, 1‐{3‐[3‐(4‐chlorophenyl)propoxy]propyl}piperidine, hydrochloride]
IC50 (NaV1.5; Fitted IC50, fit to fast inactivated Nav1.5): 26.3 µM | IC50 (NaV1.5; Fitted IC50, fit to slow inactivated Nav1.5): 26.5 µM | IC50 (NaV1.5; Fitted IC50, mean of fits to fast and slow inactivated Nav1.5, used for the whole Nav1.5 current, Hill coefficient of one): 26.4 µM | IC50 (NaV1.5; Pitolisant IC50, NaV1.5 fast inactivated state, INa): ≥ 10 µM | IC50 (NaV1.5; Pitolisant IC50, NaV1.5 resting state, INa): > 10 µM | IC50 (NaV1.5; Pitolisant IC50, NaV1.5 slow inactivated state, INa): ≥ 10 µM | IC50 (CaV1.2; Fitted IC50, CaV1.2 ICaL, Hill curve fit with Hill coefficient of one): 9.5 µM | IC50 (CaV1.2; Pitolisant IC50, CaV1.2, ICaL): ~10 µM | Ki (α2A‐adrenoceptor): 2.9 µM | effect on hERG current after long-term exposure (hERG channel trafficking; 1 μM over 24 h, after washout): no significant effect on hERG current | change in concentration in the cell culture medium over 24 h of exposure (hERG channel trafficking; LC-mass spectrometry): no significant changes | effect on dofetilide-induced EADs (rabbit Purkinje fibres; 1 μM pitolisant, dofetilide 0.1 μM): no effect (in four out of four experiments) | inhibition of dofetilide-induced EADs (experiments) (rabbit Purkinje fibres; 3 μM pitolisant, dofetilide 0.1 μM): two out of three | suppression of dofetilide-induced EADs (experiments) (rabbit Purkinje fibres; [1]): all seven | suppression of dofetilide-induced spontaneous triggered activity (experiments) (rabbit Purkinje fibres; [1]): one out of one | APD90 (rabbit Purkinje fibres; dofetilide 0.1 μM for 1 h10 and pitolisant 10 μM for 15 min): 275 ms | APD90 (rabbit Purkinje fibres; dofetilide 0.1 μM for 55 min and pitolisant 1 μM for 20 min): 598 ms | fraction unbound (in vitro): ~0.04 | QTc interval (ms) (mean ± SEM) (anaesthetized rabbits; 1 mg·kg^−1 infused over 1 h, 10 min into infusion): 154 ± 2 ms | QTc interval (ms) (mean ± SEM) (anaesthetized rabbits; 1 mg·kg^−1 infused over 1 h, 20 min into infusion): 156 ± 2 ms | QTc interval (ms) (mean ± SEM) (anaesthetized rabbits; 1 mg·kg^−1 infused over 1 h, 30 min into infusion): 156 ± 2 ms | QTc interval (ms) (mean ± SEM) (anaesthetized rabbits; 1 mg·kg^−1 infused over 1 h, 40 min into infusion): 156 ± 2 ms | QTc interval (ms) (mean ± SEM) (anaesthetized rabbits; 1 mg·kg^−1 infused over 1 h, 50 min into infusion): 157 ± 2 ms | QTc interval (ms) (mean ± SEM) (anaesthetized rabbits; 1 mg·kg^−1 infused over 1 h, 60 min into infusion): 157 ± 3 ms | QTc interval (ms) (mean ± SEM) (anaesthetized rabbits; 1 mg·kg^−1 infused over 1 h, baseline): 152 ± 3 ms | QTc interval (ms) (mean ± SEM) (anaesthetized rabbits; 10 mg·kg^−1 dose range (successively over 20 min at 1, 3.3 and 10 mg·kg^−1), 10 min into infusion): 148 ± 3 ms | QTc interval (ms) (mean ± SEM) (anaesthetized rabbits; 10 mg·kg^−1 dose range (successively over 20 min at 1, 3.3 and 10 mg·kg^−1), 20 min into infusion): 149 ± 2 ms | QTc interval (ms) (mean ± SEM) (anaesthetized rabbits; 10 mg·kg^−1 dose range (successively over 20 min at 1, 3.3 and 10 mg·kg^−1), 30 min into infusion): 151 ± 2 ms | QTc interval (ms) (mean ± SEM) (anaesthetized rabbits; 10 mg·kg^−1 dose range (successively over 20 min at 1, 3.3 and 10 mg·kg^−1), 40 min into infusion): 151 ± 1 ms | QTc interval (ms) (mean ± SEM) (anaesthetized rabbits; 10 mg·kg^−1 dose range (successively over 20 min at 1, 3.3 and 10 mg·kg^−1), 50 min into infusion): 148 ± 4 ms | QTc interval (ms) (mean ± SEM) (anaesthetized rabbits; 10 mg·kg^−1 dose range (successively over 20 min at 1, 3.3 and 10 mg·kg^−1), 60 min into infusion): 147 ± 2 ms | QTc interval (ms) (mean ± SEM) (anaesthetized rabbits; 10 mg·kg^−1 dose range (successively over 20 min at 1, 3.3 and 10 mg·kg^−1), baseline): 144 ± 4 ms | free drug concentration (anaesthetized rabbits; cumulative i.v. infusion 1, 3.3 and 10 mg·kg^−1, from total 13.8 μM): ~ 0.55 μM | change in QTc interval vs. baseline (anaesthetized rabbits; [2]): 2 ± 1% | decrease in heart rate (anaesthetized rabbits; [2]): 17 ± 4% | maximal total drug exposure (anaesthetized rabbits; [2]): 4140 ± 450 ng/mL | total drug concentration (anaesthetized rabbits; [2]): 13.8 ± 1.5 µM | effect on ventricular premature beats, ventricular tachycardia and TdP induced by clofilium (1 mg·kg^−1) (anaesthetized rabbits; pitolisant 10 mg·kg^−1): abolished | change in QTc interval (anaesthetized rabbits; pitolisant single dose 1 mg·kg^−1 i.v. over 60 min): +3 ± 1% | ventricular arrhythmias (anaesthetized rabbits; up to 10 mg·kg^−1 by i.v. slow infusion): never observed
